The record followed here is ChEMBL document CHEMBL4613209, “Quinolone hybrids and their anti-cancer activities: An overview” (Eur J Med Chem, 2019).

In general, IC50 refers to the concentration at which inhibition is half-maximal. By LD50 is commonly meant the dose at which mortality reaches 50%. One may read the GI50 as the concentration at which growth is held to half of that of the control. Lower therefore signals greater sensitivity of the cells.

Series [1] relates to K562. Kind of series: Anticancer activity against human K562 cells. The series is classed as functional, cell-based.
Series [2] has as its system MCF7. Kind of series: Cytotoxicity against human MCF7 cells assessed as reduction in cell viability after 48 hrs by MTT assay. The series is classed as functional, cell-based. The following applies: MCF7, 48 h. For orientation: Tetrazolium assays rely on reduction of a dye to a coloured formazan, in cell work by metabolically active cells.
Series [3] deals with T47D. Kind of series: Cytotoxicity against human T47D cells assessed as reduction in cell viability after 48 hrs by MTT assay. The series is classed as functional, cell-based.
Series [4] has as its system MDA-MB-231. Put plainly: Cytotoxicity against human MDA-MB-231 cells assessed as reduction in cell viability after 48 hrs by MTT assay. The following applies: MDA-MB-231, 48 h. It is filed as functional, cell-based.
Series [5] concerns MCF7. Put plainly: Cytotoxicity against human MCF7 cells assessed as reduction in cell viability after 72 hrs by MTT assay. The series is classed as functional, cell-based. To be noted: MCF7, 72 h.
The subject of series [6] is MCF7-DOX. Kind of series: Anticancer activity against human MCF7/Dox cells after 48 hrs by SRB assay. It is filed as functional, cell-based.
For series [7], the system named is MCF7. Put plainly: Anticancer activity against human MCF7 cells after 48 hrs by SRB assay. It is filed as functional, cell-based. The following applies: MCF7, 48 h. A general note: The SRB assay estimates cell density from bound dye.
The test system of series [8] is SK-OV-3. Put plainly: Anticancer activity against human SKOV3 cells after 48 hrs by SRB assay. The series is classed as functional, cell-based. The following applies: SK-OV-3, 48 h.
Series [9] concerns PANC-1. Put plainly: Anticancer activity against human PANC1 cells after 48 hrs by SRB assay. The series is classed as functional, cell-based. The following applies: PANC-1, 48 h.
The subject of series [10] is HeLa. Put plainly: Anticancer activity against human HeLa cells after 48 hrs by SRB assay. The series is classed as functional, cell-based.
Series [11] relates to HL-60. Kind of series: Anticancer activity against human HL60 cells after 48 hrs by SRB assay. The series is classed as functional, cell-based. To be noted: HL-60, 48 h.
Series [12] concerns HepG2. Put plainly: Anticancer activity against human HepG2 cells after 48 hrs by SRB assay. It is filed as functional, cell-based. The following applies: HepG2, 48 h.
The subject of series [13] is DU-145. Kind of series: Anticancer activity against human DU145 cells after 48 hrs by SRB assay. The series is classed as functional, cell-based. To be noted: DU-145, 48 h.
In series [14] the test system is A549. Put plainly: Anticancer activity against human A549 cells after 48 hrs by SRB assay. It is filed as functional, cell-based. The following applies: A549, 48 h.
The subject of series [15] is HCT-116. Put plainly: Anticancer activity against human HCT116 cells after 48 hrs by SRB assay. It is filed as functional, cell-based. To be noted: HCT-116, 48 h.
The nature of series [16]: Toxicity in mouse xenografted with human CX-1 cells. To be noted: in vivo.
A short description of series [17]: Toxicity in mouse xenografted with human MB-9812 cells. Background: In xenograft studies the graft and the host belong to different species.
Series [18] has as its system HepG2. Put plainly: Anticancer activity against human HepG2 cells by MTT assay. It is filed as functional, cell-based.
Series [19] relates to HT-29. Kind of series: Anticancer activity against human HT-29 cells by MTT assay. The series is classed as functional, cell-based.
The subject of series [20] is HL-60. Put plainly: Anticancer activity against human HL60 cells by MTT assay. The series is classed as functional, cell-based.
The subject of series [21] is A549. Put plainly: Anticancer activity against human A549 cells by MTT assay. It is filed as functional, cell-based.
In series [22] the test system is HeLa. Kind of series: Anticancer activity against human HeLa cells by MTT assay. The series is classed as functional, cell-based.
Series [23] relates to PANC-1. Kind of series: Antiproliferative activity against human PANC1 cells after 48 hrs by MTT assay. The series is classed as functional, cell-based. To be noted: PANC-1, 48 h.
Series [24] relates to HCT-116. Put plainly: Antiproliferative activity against human HCT116 cells after 48 hrs by MTT assay. It is filed as functional, cell-based. The following applies: HCT-116, 48 h.
The test system of series [25] is HeLa. Put plainly: Antiproliferative activity against human HeLa cells after 48 hrs by MTT assay. The series is classed as functional, cell-based.
The test system of series [26] is A549. Kind of series: Antiproliferative activity against human A549 cells after 48 hrs by MTT assay. The series is classed as functional, cell-based. The following applies: A549, 48 h.
The test system of series [27] is Hep 3B2. Kind of series: Antiproliferative activity against human Hep3B cells after 24 to 72 hrs by MTT assay. The series is classed as functional, cell-based.
In series [28] the test system is SMMC-7721. Put plainly: Antiproliferative activity against human SMMC7721 cells after 24 to 72 hrs by MTT assay. It is filed as functional, cell-based.
The test system of series [29] is L1210. Put plainly: Antiproliferative activity against mouse L1210 cells after 24 to 72 hrs by MTT assay. It is filed as functional, cell-based.
In series [30] the test system is HL-60. Kind of series: Antiproliferative activity against human HL60 cells after 24 to 72 hrs by MTT assay. It is filed as functional, cell-based.
Series [31] has as its target Cellular tumor antigen p53 (Homo sapiens, UniProt P04637). Kind of series: Activation of p53 in human SMMC7721 cells. The series is classed as cell-based, SMMC-7721.
For series [32], the target named is Apoptosis regulator BAX (Homo sapiens, UniProt Q07812). Kind of series: Activation of Bax in human SMMC7721 cells. The series is classed as cell-based, SMMC-7721.
Series [33] concerns the target Caspase-9 (Homo sapiens, UniProt P55211). Kind of series: Activation of caspase 9 in human SMMC7721 cells. The series is classed as cell-based, SMMC-7721.
Series [34] deals with Caspase-3 (Homo sapiens, UniProt P42574). Put plainly: Activation of caspase 3 in human SMMC7721 cells. It is filed as cell-based, SMMC-7721.
Series [35] has as its system MCF7. Kind of series: Cytotoxicity against human MCF7 cells assessed as reduction in cell viability by SRB assay. The series is classed as functional, cell-based.
Series [36] relates to HCT-116. Put plainly: Cytotoxicity against human HCT116 cells assessed as reduction in cell viability by SRB assay. The series is classed as functional, cell-based.
The test system of series [37] is SiHa. Put plainly: Growth inhibition of human SiHa cells after 48 hrs by SRB assay. The series is classed as functional.
Series [38] deals with MDA-MB-231. Kind of series: Growth inhibition of human MDA-MB-231 cells after 48 hrs by SRB assay. It is filed as functional. To be noted: MDA-MB-231, 48 h.
Series [39] relates to PANC-1. Kind of series: Growth inhibition of human PANC1 cells after 48 hrs by SRB assay. It is filed as functional. To be noted: PANC-1, 48 h.
Series [40] has as its system SW1990. Kind of series: Cytotoxicity against human SW1990 cells assessed as reduction in cell viability by MTT assay. The series is classed as functional, cell-based.
Series [41] concerns SMMC-7721. Kind of series: Cytotoxicity against human SMMC7721 cells assessed as reduction in cell viability by MTT assay. The series is classed as functional, cell-based.
In series [42] the test system is HUVEC. Put plainly: Cytotoxicity against human HUVEC cells assessed as reduction in cell viability by MTT assay. It is filed as cell-based.
Series [43] deals with HCT-8. Put plainly: Antiproliferative activity against human HCT8 cells after 48 hrs by MTT assay. It is filed as functional, cell-based. The following applies: HCT-8, 48 h.

Sequence of Caspase-9 (P55211 1-315 limits assumed): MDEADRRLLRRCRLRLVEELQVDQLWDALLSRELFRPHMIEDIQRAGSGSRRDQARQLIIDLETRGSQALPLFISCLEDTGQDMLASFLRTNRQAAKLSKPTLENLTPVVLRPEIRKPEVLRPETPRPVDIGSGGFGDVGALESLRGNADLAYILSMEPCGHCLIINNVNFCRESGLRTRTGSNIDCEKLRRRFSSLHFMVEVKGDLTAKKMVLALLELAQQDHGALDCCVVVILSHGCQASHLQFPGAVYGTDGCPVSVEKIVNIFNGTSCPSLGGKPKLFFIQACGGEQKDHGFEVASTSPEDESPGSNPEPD
Sequence of Caspase-9 (P55211 331-416 limits assumed): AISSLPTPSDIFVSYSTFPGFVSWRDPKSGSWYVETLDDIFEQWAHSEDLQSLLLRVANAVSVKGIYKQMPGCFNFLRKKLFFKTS
Sequence of Caspase-3 (P42574 29-175 limits assumed): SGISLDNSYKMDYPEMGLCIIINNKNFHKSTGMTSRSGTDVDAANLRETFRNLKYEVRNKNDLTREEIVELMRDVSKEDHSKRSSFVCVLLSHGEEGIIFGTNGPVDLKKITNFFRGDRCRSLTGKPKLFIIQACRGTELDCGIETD
Sequence of Caspase-3 (P42574 176-277 limits assumed): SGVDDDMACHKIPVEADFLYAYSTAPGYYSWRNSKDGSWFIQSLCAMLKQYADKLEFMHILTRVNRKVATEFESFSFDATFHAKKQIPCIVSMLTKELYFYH
Sequence of Apoptosis regulator BAX (Q07812 whole entry): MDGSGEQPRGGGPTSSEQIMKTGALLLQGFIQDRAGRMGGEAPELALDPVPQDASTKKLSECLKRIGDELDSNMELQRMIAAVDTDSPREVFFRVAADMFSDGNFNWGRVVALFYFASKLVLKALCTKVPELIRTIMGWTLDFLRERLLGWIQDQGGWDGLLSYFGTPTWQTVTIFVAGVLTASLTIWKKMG
Sequence of Cellular tumor antigen p53 (P04637 whole entry): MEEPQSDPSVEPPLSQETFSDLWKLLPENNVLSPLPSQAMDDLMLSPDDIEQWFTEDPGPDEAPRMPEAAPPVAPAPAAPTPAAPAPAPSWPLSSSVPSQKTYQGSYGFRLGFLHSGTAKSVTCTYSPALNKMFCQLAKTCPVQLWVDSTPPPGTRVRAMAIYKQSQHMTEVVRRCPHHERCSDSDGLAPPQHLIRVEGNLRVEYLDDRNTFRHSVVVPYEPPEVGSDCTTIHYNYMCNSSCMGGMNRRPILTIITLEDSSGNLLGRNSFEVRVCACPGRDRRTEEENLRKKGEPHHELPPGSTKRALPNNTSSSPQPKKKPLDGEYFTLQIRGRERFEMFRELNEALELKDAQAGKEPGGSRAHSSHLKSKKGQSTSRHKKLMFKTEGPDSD

In turn, `O=C(O)c1cn([C@@H]2O[C@H](CO)[C@@H](O)[C@H]2O)c2ccc(Oc3ccccc3)cc2c1=O` gave an IC50 in series [1] of 64.1 to 198 µM.
For the compound `COc1cc([C@@H]2c3cc4c(cc3[C@@H](O[C@@H]3O[C@@H]5CO[C@@H](C)O[C@H]5[C@H](O)[C@H]3O)[C@H]3COC(=O)[C@H]23)OCO4)cc(OC)c1O` [ETOPOSIDE], the IC50 in series [2] is 11.8 to 15.7 µM; in series [3] it was 11.8 to 15.7 µM; in [4], 11.8 to 15.7 µM; in [5], 2.91 to 50 µM; in [6], 2.91 to 50 µM; in [7] it was 2.91 to 50 µM. The IC50 in series [8], in series [9], in series [10], in series [11], in series [12] and in [13] was 2.91 to 50 µM throughout. Besides, the IC50 in series [14] and in [15] was 2.91 to 50 µM throughout. The 50% lethal dose (LD50) in series [16] and in series [17] was 64 mg/kg each time.
On to `CCOC(=O)c1cn(Cc2cn(-c3ccc(F)cc3)nn2)c2ccc(Cl)cc2c1=O`, for which the half-maximal inhibitory concentration (IC50) in series [18], in [19], in series [20], in series [21] and in [22] was 13.6 to 66 µM throughout.
In the case of `CCCN(CCC)Cc1cn(-c2cc3c(cc2F)c(=O)c(C(=O)NO)cn3C2CC2)nn1`, the IC50 in series [23], in series [24], in [25] and in series [26] was more than 10 µM in each case.
On to `O=C(N/N=C/c1ccc2c(c1)OCO2)c1cn(C2CC2)c2cc(N3CCNCC3)c(F)cc2c1=O`, for which the half-inhibitory concentration (IC50) in [27] fell in the range of 1.4 to 52.3 µM; in [28] it was 1.4 to 52.3 µM; in series [29], 1.4 to 52.3 µM; in series [30] it was 1.4 to 52.3 µM; in series [31] it was 3 to 7.39 µM; in series [32], 3 to 7.39 µM. Also, the 50% inhibitory concentration (IC50) in series [33] and in [34] was 3 to 7.39 µM throughout.
With `N#Cc1c(N)c2cc(-c3nc4ccccc4s3)ccc2[nH]c1=O`, the IC50 in [35] was determined as 0.0748 µM; in series [36] it was 0.0616 µM.
For `O=C(NO)c1cn(C2CC2)c2cc(-n3cc(CN4CCOCC4)nn3)c(F)cc2c1=O`, the 50% inhibitory concentration (IC50) in series [23], in series [24], in series [25] and in series [26] was more than 10 µM in each case.
With `CCN(CC)Cc1cn(-c2cc3c(cc2F)c(=O)c(C(=O)NO)cn3C2CC2)nn1`, the IC50 in [23], in series [24], in series [25] and in series [26] was more than 10 µM each time.
With `CN(Cc1cnc2nc(N)nc(N)c2n1)c1ccc(C(=O)N[C@@H](CCC(=O)O)C(=O)O)cc1` [METHOTREXATE], the LD50 in [16] and in [17] was 5 mg/kg in each case.
As to `CC(C)NCc1cn(-c2cc3c(cc2F)c(=O)c(C(=O)NO)cn3C2CC2)nn1`, the IC50 in [23], in series [24], in series [25] and in [26] was more than 10 µM throughout.
As to `CCn1cc(C(=O)O)c(=O)c2cnc(N3CCN(C(=O)CCSc4nnnn4-c4ccc(Br)cc4)CC3)nc21`, the figures for the 50% growth inhibitory concentration (GI50) in series [37], in [38] and in series [39] were 0.08 µM, 0.22 µM and 0.07 µM, respectively.
Regarding `COc1ccc2cc3[n+](cc2c1OC)CCc1cc2c(cc1-3)OCO2` [BERBERINE], the 50% inhibitory concentration (IC50) in series [40], in series [41] and in series [42] was 18.3 to 65.6 µM in each case.
Consider `COc1ccc(C2CC(c3c(-c4ccccc4)c4ccccc4[nH]c3=O)=NN2c2ccccc2)cc1` (stereo not given), for which the figures for the concentration for half-maximal inhibition (IC50) in series [24], in series [25] and in series [43] were 2.2 µM, 2.4 µM and 5.6 µM, respectively.
The compound `CCOC(=O)c1cn([C@@H]2O[C@H](CO)[C@@H](O)[C@H]2O)c2ccc(Nc3ccccc3)cc2c1=O` registered an IC50 in series [1] of 64.1 to 198 µM.
